Assay results from PubChem BioAssay AID248 (DTP/NCI, 2004).
Where “and” joins values, the source holds several entries; their conditions need not be identical. Equal values may be shown once. Toxic doses and inconclusive results are not listed. No stated cut-off is given here; in the data, active means T/C of 150% or more; inactive means T/C below 125%.

Tested on: L1210 leukemia ip in BDF1 mice, survival T/C
Assay: NCI In Vivo Anticancer Drug Screen. Data for tumor model L1210 Leukemia (intraperitoneal) in B6D2F1 (BDF1) mice
Conditions: endpoint: mean survival time, higher = longer survival
Outline: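 Tumor was transplanted into mice, which were then dosed with test compound or vehicle alone. Survival was recorded for each group, and the treated figure was expressed relative to the control figure.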

[1] = dose: 25.0 mg/kg/injection, schedule: Q04DX003 (ip), vehicle: saline with Tween-80
[2] = dose: 50.0 mg/kg/injection, schedule: Q04DX003 (ip), vehicle: saline with Tween-80
[3] = dose: 100.0 mg/kg/injection, schedule: Q04DX003 (ip), vehicle: saline with Tween-80
[4] = dose: 200.0 mg/kg/injection, schedule: Q04DX003 (ip), vehicle: saline with Tween-80
[5] = dose: 100.0 mg/kg/injection, schedule: Q01DX001 (ip), vehicle: saline
[6] = dose: 200.0 mg/kg/injection, schedule: Q01DX001 (ip), vehicle: saline
[7] = dose: 400.0 mg/kg/injection, schedule: Q01DX001 (ip), vehicle: saline
[8] = dose: 400.0 mg/kg/injection, schedule: Q04DX003 (ip), vehicle: saline with Tween-80
[9] = dose: 100.0 mg/kg/injection, schedule: Q04DX003 (ip), vehicle: saline

Measured: T/C

O=C(O)Cc1cccc(S(=O)(=O)F)c1
inactive: [1] 96 % of control | dose: 50.0 mg/kg/injection, schedule: Q01DX009 (ip), vehicle: saline with Tween-80 109 % of control | [2] 99 % of control | dose: 100.0 mg/kg/injection, schedule: Q01DX001 (ip), vehicle: saline with Tween-80 96 % of control | dose: 100.0 mg/kg/injection, schedule: Q01DX009 (ip), vehicle: saline with Tween-80 111 % of control | dose: 100.0 mg/kg/injection, schedule: Q04DX002 (ip), vehicle: saline with Tween-80 91 % of control | [3] 99 % of control and 100 % of control | dose: 200.0 mg/kg/injection, schedule: Q01DX001 (ip), vehicle: saline with Tween-80 92 % of control | dose: 200.0 mg/kg/injection, schedule: Q01DX009 (ip), vehicle: saline with Tween-80 104 % of control | dose: 200.0 mg/kg/injection, schedule: Q04DX002 (ip), vehicle: saline with Tween-80 86 % of control | [4] 105 % of control | dose: 400.0 mg/kg/injection, schedule: Q01DX001 (ip), vehicle: saline with Tween-80 100 % of control

Clc1cccc(C[P+](c2ccccc2)(c2ccccc2)c2ccccc2)c1
inactive: dose: 1.5 mg/kg/injection, schedule: Q01DX009 (ip), vehicle: Klucel (hydroxypropylcellulose) (HPC) 91 % of control | dose: 3.0 mg/kg/injection, schedule: Q01DX009 (ip), vehicle: Klucel (hydroxypropylcellulose) (HPC) 94 % of control | dose: 6.0 mg/kg/injection, schedule: Q01DX009 (ip), vehicle: Klucel (hydroxypropylcellulose) (HPC) 88 % of control | dose: 12.5 mg/kg/injection, schedule: Q04DX003 (ip), vehicle: Klucel (hydroxypropylcellulose) (HPC) 98 % of control | dose: 25.0 mg/kg/injection, schedule: Q04DX003 (ip), vehicle: Klucel (hydroxypropylcellulose) (HPC) 98 % of control

c1ccc(-c2cc(-c3ccccc3)c(-c3ccccc3)c(-c3ccccc3)c2)cc1
inactive: dose: 50.0 mg/kg/injection, schedule: Q01DX001 (ip), vehicle: saline 100 % of control | [5] 100 % of control | [6] 100 % of control | [7] 100 % of control

c1ccc2c(c1)C1=NCCN1c1ccccc1-2
inactive: dose: 10.0 mg/kg/injection, schedule: Q01DX009 (ip), vehicle: Klucel (hydroxypropylcellulose) (HPC) 101 % of control | dose: 10.0 mg/kg/injection, schedule: Q04DX003 (ip), vehicle: Klucel (hydroxypropylcellulose) (HPC) 114 % of control | dose: 20.0 mg/kg/injection, schedule: Q01DX009 (ip), vehicle: Klucel (hydroxypropylcellulose) (HPC) 111 % of control | dose: 20.0 mg/kg/injection, schedule: Q04DX003 (ip), vehicle: Klucel (hydroxypropylcellulose) (HPC) 122 % of control | dose: 40.0 mg/kg/injection, schedule: Q01DX009 (ip), vehicle: Klucel (hydroxypropylcellulose) (HPC) 105 % of control | dose: 40.0 mg/kg/injection, schedule: Q04DX003 (ip), vehicle: Klucel (hydroxypropylcellulose) (HPC) 112 % of control

CC(NC(=O)CNC(=O)c1cnc2ccccc2n1)C(=O)O (centres undefined)
inactive: [5] 100 % of control | [6] 101 % of control | [7] 94 % of control

CS(=O)(=O)NCC1OC(n2cnc3c(N)ncnc32)C(O)C1O (centres undefined)
inactive: [5] 104 % of control | [6] 96 % of control | [7] 98 % of control

CCOC(=O)Nc1nc(NC(=O)OCC)c(Cl)nc1Cl
inactive: dose: 25.0 mg/kg/injection, schedule: Q01DX009 (ip), vehicle: water 104 % of control | dose: 50.0 mg/kg/injection, schedule: Q01DX009 (ip), vehicle: water 100 % of control | dose: 100.0 mg/kg/injection, schedule: Q01DX009 (ip), vehicle: water 114 % of control | dose: 200.0 mg/kg/injection, schedule: Q01DX009 (ip), vehicle: water 106 % of control | dose: 400.0 mg/kg/injection, schedule: Q01DX009 (ip), vehicle: water 97 % of control

CSc1ccc(NC(=O)Nc2cc(C)c(C)cc2C)cc1
inactive: dose: 100.0 mg/kg/injection, schedule: Q01DX009 (ip), vehicle: other 86 % of control | dose: 200.0 mg/kg/injection, schedule: Q01DX009 (ip), vehicle: other 93 % of control and 90 % of control | dose: 400.0 mg/kg/injection, schedule: Q01DX009 (ip), vehicle: other 93 % of control and 106 % of control

CC(=O)C(=O)C=C(C(F)(F)F)C(F)(F)F
inactive: [3] 113 % of control | [4] 106 % of control | [8] 101 % of control

O=C(Nc1ccc([N+](=O)[O-])cc1)C(c1ccccc1)c1ccccc1
inactive: dose: 100.0 mg/kg/injection, schedule: Q04DX002 (ip), vehicle: gum acacia 100 % of control | dose: 200.0 mg/kg/injection, schedule: Q04DX002 (ip), vehicle: gum acacia 100 % of control | dose: 400.0 mg/kg/injection, schedule: Q04DX002 (ip), vehicle: gum acacia 93 % of control

Nc1nc2c(ncn2-c2cccc(-c3ccccc3)c2)c(=O)[nH]1
inactive: [1] 100 % of control | [2] 102 % of control | [3] 100 % of control | [4] 87 % of control

O=C(O)CC(=O)c1cccc([N+](=O)[O-])c1
inactive: dose: 100.0 mg/kg/injection, schedule: Q01DX001 (ip), vehicle: Klucel (hydroxypropylcellulose) (HPC) 104 % of control | dose: 200.0 mg/kg/injection, schedule: Q01DX001 (ip), vehicle: Klucel (hydroxypropylcellulose) (HPC) 97 % of control | dose: 400.0 mg/kg/injection, schedule: Q01DX001 (ip), vehicle: Klucel (hydroxypropylcellulose) (HPC) 96 % of control

COc1ccc(CCO)cc1
inactive: [3] 92 % of control | [4] 101 % of control | [8] 95 % of control

CC1=NNC(C)(C)C1
inactive: [9] 91 % of control | dose: 200.0 mg/kg/injection, schedule: Q04DX003 (ip), vehicle: saline 93 % of control | dose: 400.0 mg/kg/injection, schedule: Q04DX003 (ip), vehicle: saline 98 % of control

CSc1nc(N)c2n[nH]nc2n1
inactive: [3] 103 % of control | [4] 95 % of control | [8] 95 % of control

Cc1cc(OC(=O)Nc2cccc(Cl)c2Cl)c(C(C)C)cc1Cl
inactive: dose: 100.0 mg/kg/injection, schedule: Q01DX009 (ip), vehicle: Klucel (hydroxypropylcellulose) (HPC) 97 % of control | dose: 200.0 mg/kg/injection, schedule: Q01DX009 (ip), vehicle: Klucel (hydroxypropylcellulose) (HPC) 94 % of control | dose: 400.0 mg/kg/injection, schedule: Q01DX009 (ip), vehicle: Klucel (hydroxypropylcellulose) (HPC) 100 % of control

COc1cccc(C23CCCCC2=NCC3)c1 (centres undefined)
inactive: dose: 25.0 mg/kg/injection, schedule: Q04DX003 (ip), vehicle: saline 100 % of control | dose: 50.0 mg/kg/injection, schedule: Q04DX003 (ip), vehicle: saline 107 % of control | [9] 89 % of control
